Laboratory results published in patent US11752188B2, “Compositions and methods for nutritional supplements” (DailyColors Health Inc., priority 2020, dated 2023).
Where two headings read alike, the source gives them in different places.

Legend:
Assay type in all cases: biochemical
[1] = target: T1, recombinant human JAK3 (Homo sapiens, UniProt P52333); assay: JAK3 Kinase-Glo Plus luminescence kinase assay
T1 sequence (P52333 1-1124): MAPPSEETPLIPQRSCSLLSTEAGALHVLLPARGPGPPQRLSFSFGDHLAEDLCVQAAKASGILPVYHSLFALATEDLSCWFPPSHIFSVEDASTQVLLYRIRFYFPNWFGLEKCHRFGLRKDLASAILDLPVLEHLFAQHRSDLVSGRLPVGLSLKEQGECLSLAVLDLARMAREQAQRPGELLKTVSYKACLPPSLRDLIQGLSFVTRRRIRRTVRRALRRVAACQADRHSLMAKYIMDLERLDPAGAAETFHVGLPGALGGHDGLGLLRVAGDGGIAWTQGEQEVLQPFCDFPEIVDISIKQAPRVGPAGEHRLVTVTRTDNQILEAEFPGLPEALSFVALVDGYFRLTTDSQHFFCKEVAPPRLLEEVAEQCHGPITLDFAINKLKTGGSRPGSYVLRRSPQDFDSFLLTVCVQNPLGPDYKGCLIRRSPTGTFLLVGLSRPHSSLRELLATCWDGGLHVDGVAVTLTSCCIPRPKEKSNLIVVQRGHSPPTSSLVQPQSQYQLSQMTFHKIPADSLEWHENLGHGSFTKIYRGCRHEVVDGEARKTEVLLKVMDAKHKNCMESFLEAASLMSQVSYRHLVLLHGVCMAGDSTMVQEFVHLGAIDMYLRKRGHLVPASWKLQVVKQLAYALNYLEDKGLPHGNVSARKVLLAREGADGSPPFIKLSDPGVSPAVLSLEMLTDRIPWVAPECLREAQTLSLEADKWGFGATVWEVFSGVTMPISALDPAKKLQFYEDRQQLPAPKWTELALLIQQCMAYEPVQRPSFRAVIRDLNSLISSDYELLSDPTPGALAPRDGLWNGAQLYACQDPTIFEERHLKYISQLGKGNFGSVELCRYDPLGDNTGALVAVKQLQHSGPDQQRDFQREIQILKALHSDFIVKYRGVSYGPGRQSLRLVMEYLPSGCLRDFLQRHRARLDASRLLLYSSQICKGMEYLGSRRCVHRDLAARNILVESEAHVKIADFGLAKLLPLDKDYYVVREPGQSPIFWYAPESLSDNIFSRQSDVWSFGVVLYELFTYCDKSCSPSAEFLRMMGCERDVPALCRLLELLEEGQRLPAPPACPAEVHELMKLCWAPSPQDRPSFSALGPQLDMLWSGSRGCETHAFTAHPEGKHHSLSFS

[2] = target: recombinant human JAK1 (Homo sapiens, UniProt P23458); assay: JAK1 Kinase-Glo Plus luminescence kinase assay
Sequence of recombinant human JAK1 (P23458 whole entry): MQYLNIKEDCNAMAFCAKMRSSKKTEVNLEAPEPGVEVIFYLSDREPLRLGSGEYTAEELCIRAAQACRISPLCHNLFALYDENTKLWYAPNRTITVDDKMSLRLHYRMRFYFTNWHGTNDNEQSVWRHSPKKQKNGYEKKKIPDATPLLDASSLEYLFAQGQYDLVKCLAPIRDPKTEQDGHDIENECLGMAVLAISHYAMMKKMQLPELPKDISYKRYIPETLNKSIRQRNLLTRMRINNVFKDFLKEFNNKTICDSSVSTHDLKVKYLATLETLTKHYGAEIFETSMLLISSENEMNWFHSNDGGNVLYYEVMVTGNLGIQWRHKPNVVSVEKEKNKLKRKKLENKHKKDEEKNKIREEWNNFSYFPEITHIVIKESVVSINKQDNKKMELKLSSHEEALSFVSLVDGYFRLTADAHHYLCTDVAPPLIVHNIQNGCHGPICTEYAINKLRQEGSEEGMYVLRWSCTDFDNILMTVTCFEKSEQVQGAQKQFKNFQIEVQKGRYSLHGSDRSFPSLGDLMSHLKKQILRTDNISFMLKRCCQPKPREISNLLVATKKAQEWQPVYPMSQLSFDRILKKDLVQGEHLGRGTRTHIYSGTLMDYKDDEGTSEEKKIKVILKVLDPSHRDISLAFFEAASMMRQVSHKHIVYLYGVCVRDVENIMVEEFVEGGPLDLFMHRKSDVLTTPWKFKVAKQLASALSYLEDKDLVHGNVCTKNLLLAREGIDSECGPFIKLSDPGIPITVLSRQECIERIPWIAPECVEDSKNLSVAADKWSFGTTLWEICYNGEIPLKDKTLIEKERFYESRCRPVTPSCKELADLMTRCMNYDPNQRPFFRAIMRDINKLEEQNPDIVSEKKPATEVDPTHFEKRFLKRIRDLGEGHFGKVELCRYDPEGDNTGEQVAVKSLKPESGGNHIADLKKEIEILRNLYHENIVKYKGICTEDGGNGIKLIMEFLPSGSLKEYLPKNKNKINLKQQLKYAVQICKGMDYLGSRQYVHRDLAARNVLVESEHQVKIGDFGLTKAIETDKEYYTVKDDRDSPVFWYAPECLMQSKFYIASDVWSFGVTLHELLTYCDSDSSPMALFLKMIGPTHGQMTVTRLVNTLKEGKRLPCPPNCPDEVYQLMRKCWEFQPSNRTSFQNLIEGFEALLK

[3] = target: recombinant human JAK2 (Homo sapiens, UniProt O60674); assay: JAK2 Kinase-Glo Plus luminescence kinase assay
Sequence of recombinant human JAK2 (O60674 whole entry): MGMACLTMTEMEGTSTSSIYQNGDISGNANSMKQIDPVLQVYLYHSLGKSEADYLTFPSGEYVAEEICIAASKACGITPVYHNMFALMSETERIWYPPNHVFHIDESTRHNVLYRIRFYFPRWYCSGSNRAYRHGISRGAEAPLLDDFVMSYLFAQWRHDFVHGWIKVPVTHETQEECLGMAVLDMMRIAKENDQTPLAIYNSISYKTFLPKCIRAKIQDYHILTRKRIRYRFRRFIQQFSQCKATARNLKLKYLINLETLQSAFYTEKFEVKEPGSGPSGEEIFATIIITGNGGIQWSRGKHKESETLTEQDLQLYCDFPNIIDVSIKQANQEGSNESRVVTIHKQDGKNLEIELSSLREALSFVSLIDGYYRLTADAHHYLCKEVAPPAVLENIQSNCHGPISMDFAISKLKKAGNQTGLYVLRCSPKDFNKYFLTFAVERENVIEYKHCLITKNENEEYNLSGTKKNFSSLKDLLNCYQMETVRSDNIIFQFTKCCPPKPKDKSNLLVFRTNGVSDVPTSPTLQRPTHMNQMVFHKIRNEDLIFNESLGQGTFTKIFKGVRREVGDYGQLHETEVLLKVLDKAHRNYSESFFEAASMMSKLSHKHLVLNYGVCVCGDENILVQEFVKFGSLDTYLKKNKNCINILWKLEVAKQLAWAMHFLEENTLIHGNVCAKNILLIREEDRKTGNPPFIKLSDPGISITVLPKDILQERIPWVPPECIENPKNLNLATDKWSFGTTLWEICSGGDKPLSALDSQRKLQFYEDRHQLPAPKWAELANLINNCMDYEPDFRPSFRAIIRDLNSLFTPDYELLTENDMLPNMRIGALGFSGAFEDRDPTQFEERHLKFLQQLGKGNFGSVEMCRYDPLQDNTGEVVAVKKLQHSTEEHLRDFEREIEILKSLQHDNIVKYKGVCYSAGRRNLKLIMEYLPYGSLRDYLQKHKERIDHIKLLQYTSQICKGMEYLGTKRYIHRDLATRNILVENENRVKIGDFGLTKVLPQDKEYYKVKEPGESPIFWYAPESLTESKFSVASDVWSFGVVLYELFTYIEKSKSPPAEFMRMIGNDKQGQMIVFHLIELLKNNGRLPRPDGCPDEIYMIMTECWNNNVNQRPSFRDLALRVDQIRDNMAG

CN[C@@H]1C[C@H]2O[C@@](C)([C@@H]1OC)n1c3ccccc3c3c4c(c5c6ccccc6n2c5c31)C(=O)NC4 [Staurosporine]
inhibition at 0.001 µM [1]: 19% | inhibition at 0.01 µM [1]: 65% | inhibition at 0.1 µM [1]: 100% | Kinase Activity Luminescence Repeat1 ([1]; 0.001 μM, TABLE 70): 23814 | Kinase Activity Luminescence Repeat2 ([1]; 0.001 μM, TABLE 70): 23348 | Kinase Activity Luminescence Repeat1 ([1]; 1 nM, TABLE 73): 21050 | Kinase Activity Luminescence Repeat2 ([1]; 1 nM, TABLE 73): 24827 | Kinase Activity Luminescence Repeat1 ([1]; 0.01 μM, TABLE 70): 32137 | Kinase Activity Luminescence Repeat2 ([1]; 0.01 μM, TABLE 70): 32417 | Kinase Activity Luminescence Repeat1 ([1]; 10 nM, TABLE 73): 32876 | Kinase Activity Luminescence Repeat2 ([1]; 10 nM, TABLE 73): 34538 | Kinase Activity Luminescence Repeat1 ([1]; 0.1 μM, TABLE 70): 39970 | Kinase Activity Luminescence Repeat2 ([1]; 0.1 μM, TABLE 70): 40121 | Kinase Activity Luminescence Repeat1 ([1]; 100 nM, TABLE 73): 37496 | Kinase Activity Luminescence Repeat2 ([1]; 100 nM, TABLE 73): 39233 | activity at 0.001 µM ([1]; read-out: % Activity Repeat1, 0.001 μM, TABLE 70): 80% | activity at 0.001 µM ([1]; read-out: % Activity Repeat1, 1 nM, TABLE 73): 84% | activity at 0.01 µM ([1]; read-out: % Activity Repeat1, 10 nM, TABLE 73): 27% | activity at 0.1 µM ([1]; read-out: % Activity Repeat1, 0.1 μM, TABLE 70): 0% | activity at 0.1 µM ([1]; read-out: % Activity Repeat1, 100 nM, TABLE 73): 5% | activity at 0.001 µM ([1]; read-out: % Activity Repeat2, 0.001 μM, TABLE 70): 82% | activity at 0.001 µM ([1]; read-out: % Activity Repeat2, 1 nM, TABLE 73): 66% | activity at 0.01 µM ([1]; read-out: % Activity Repeat2, 0.01 μM, TABLE 70): 35% | activity at 0.01 µM ([1]; read-out: % Activity Repeat2, 10 nM, TABLE 73): 20% | activity at 0.1 µM ([1]; read-out: % Activity Repeat2, 0.1 μM, TABLE 70): 0% | activity at 0.1 µM ([1]; read-out: % Activity Repeat2, 100 nM, TABLE 73): 0% | inhibition at 0.001 µM ([1]; read-out: % Inhibition JAK3): 25% | inhibition at 0.01 µM ([1]; read-out: % Inhibition JAK3): 77% | inhibition at 0.1 µM ([1]; read-out: % Inhibition JAK3): 97% | inhibition at 0.001 µM [2]: 7% | inhibition at 0.01 µM [2]: 72% | Kinase Activity Luminescence Repeat1 ([2]; 0.001 μM, TABLE 68): 25176 | Kinase Activity Luminescence Repeat2 ([2]; 0.001 μM, TABLE 68): 27054 | Kinase Activity Luminescence Repeat1 ([2]; 1 nM, TABLE 71): 21164 | Kinase Activity Luminescence Repeat2 ([2]; 1 nM, TABLE 71): 24810 | Kinase Activity Luminescence Repeat1 ([2]; 0.01 μM, TABLE 68): 37642 | Kinase Activity Luminescence Repeat2 ([2]; 0.01 μM, TABLE 68): 35358 | Kinase Activity Luminescence Repeat1 ([2]; 10 nM, TABLE 71): 28640 | Kinase Activity Luminescence Repeat2 ([2]; 10 nM, TABLE 71): 32000 | Kinase Activity Luminescence Repeat1 ([2]; 0.1 μM, TABLE 68): 40161 | Kinase Activity Luminescence Repeat2 ([2]; 0.1 μM, TABLE 68): 40781 | Kinase Activity Luminescence Repeat1 ([2]; 100 nM, TABLE 71): 36908 | Kinase Activity Luminescence Repeat2 ([2]; 100 nM, TABLE 71): 39509 | activity at 0.001 µM ([2]; read-out: % Activity Repeat1, 0.001 μM, TABLE 68): 99% | activity at 0.001 µM ([2]; read-out: % Activity Repeat1, 1 nM, TABLE 71): 88% | activity at 0.01 µM ([2]; read-out: % Activity Repeat1, 10 nM, TABLE 71): 52% | activity at 0.1 µM ([2]; read-out: % Activity Repeat1, 0.1 μM, TABLE 68): 5% | activity at 0.1 µM ([2]; read-out: % Activity Repeat1, 100 nM, TABLE 71): 11% | activity at 0.001 µM ([2]; read-out: % Activity Repeat2, 0.001 μM, TABLE 68): 87% | activity at 0.001 µM ([2]; read-out: % Activity Repeat2, 1 nM, TABLE 71): 70% | activity at 0.1 µM ([2]; read-out: % Activity Repeat2, 0.1 μM, TABLE 68): 1% | activity at 0.1 µM ([2]; read-out: % Activity Repeat2, 100 nM, TABLE 71): 0% | inhibition at 0.01 µM ([2]; read-out: % Inhibition JAK1): 56% | inhibition at 0.1 µM ([2]; read-out: % Inhibition JAK1): 94% | Kinase Activity Luminescence Repeat1 ([3]; 0.001 μM, TABLE 69): 19100 | Kinase Activity Luminescence Repeat2 ([3]; 0.001 μM, TABLE 69): 20922 | inhibition at 0.001 µM ([3]; 0.001 μM, TABLE 69): 0% | activity at 0.001 µM ([3]; 0.001 μM, TABLE 69, read-out: % Activity Repeat1): 105% | activity at 0.001 µM ([3]; 0.001 μM, TABLE 69, read-out: % Activity Repeat2): 96% | Kinase Activity Luminescence Repeat1 ([3]; 1 nM, TABLE 72): 9482 | Kinase Activity Luminescence Repeat2 ([3]; 1 nM, TABLE 72): 10430 | activity at 0.001 µM ([3]; 1 nM, TABLE 72, read-out: % Activity Repeat1): 89% | activity at 0.001 µM ([3]; 1 nM, TABLE 72, read-out: % Activity Repeat2): 86% | Kinase Activity Luminescence Repeat1 ([3]; 0.01 μM, TABLE 69): 36988 | Kinase Activity Luminescence Repeat2 ([3]; 0.01 μM, TABLE 69): 36554 | activity at 0.01 µM ([3]; 0.01 μM, TABLE 69, read-out: % Activity Repeat1): 16% | activity at 0.01 µM ([3]; 0.01 μM, TABLE 69, read-out: % Activity Repeat2): 18% | inhibition at 0.01 µM ([3]; 0.01 μM, TABLE 69, read-out: % Inhibition): 83% | Kinase Activity Luminescence Repeat1 ([3]; 10 nM, TABLE 72): 17529 | Kinase Activity Luminescence Repeat2 ([3]; 10 nM, TABLE 72): 16180 | activity at 0.01 µM ([3]; 10 nM, TABLE 72, read-out: % Activity Repeat1): 65% | activity at 0.01 µM ([3]; 10 nM, TABLE 72, read-out: % Activity Repeat2): 69% | inhibition at 0.01 µM ([3]; 10 nM, TABLE 74 summary, read-out: % Inhibition JAK2): 33% | Kinase Activity Luminescence Repeat1 ([3]; 0.1 μM, TABLE 69): 42700 | Kinase Activity Luminescence Repeat2 ([3]; 0.1 μM, TABLE 69): 40639 | inhibition at 0.1 µM ([3]; 0.1 μM, TABLE 69): 100% | activity at 0.1 µM ([3]; 0.1 μM, TABLE 69, read-out: % Activity Repeat1): 0% | activity at 0.1 µM ([3]; 0.1 μM, TABLE 69, read-out: % Activity Repeat2): 0% | Kinase Activity Luminescence Repeat1 ([3]; 100 nM, TABLE 72): 34660 | Kinase Activity Luminescence Repeat2 ([3]; 100 nM, TABLE 72): 34762
